According to patent US10562842B2, “Use of polyaminoisoprenyl derivatives in antibiotic or antiseptic treatment” (UNIVERSITE D'AIX-MARSEILLE, priority 2011, dated 2020):

Columns and labels:
[1] = system: Enterobacter aerogenes MDR Ea289; experiment: MIC of antibiotics ± test compound (MIC ratio), micro-broth dilution; assay type: cell-based
Description: The process consists of treating the MDR bacteria with the compounds of the invention in the presence of antibiotics.
(§1) Susceptibilities to antibiotics and compounds were determined in microplates by broth dilution method, as previously described. Minimal Inhibitory Concentrations (MICs) were determined with an inoculum of 10^6 CFU in 200 μL of MH broth containing two-fold serial dilutions of each drug. […] All MIC determinations were repeated at least three times in independent experiments.
The MICs of chloramphenicol±test compounds (MIC/4) were determined by the micro-broth dilution method (9). All MIC determinations were repeated at least three times in independent experiments. The MIC ratio corresponds to the ratio of the MIC of an antibiotic alone to the MIC of the same antibiotic in the presence of the tested compound (at MIC/4).
The compounds listed in Table 2 were tested for their ability to decrease the chloramphenicol MIC of Ea289, an Enterobacter aerogenes MDR strain (1). Each compound was first tested at MIC/4. […] All MIC determinations were repeated at least three times in independent experiments.
(§2) For reminder, the MIC ratio corresponds to the ratio of the MIC of the assessed antibiotic alone to the MIC of the same antibiotic in the presence of the tested compound (at MIC/4).

[2] = system: Salmonella Thyphimurium MDR BN10055; experiment: as above; assay type: cell-based, Salmonella enterica serovar Typhimurium; conditions: compound at MIC/4; for MIC ratio (*) on BN10055 Chl: chloramphenicol; for MIC ratio (*) on BN10055 Dox: doxycycline; for MIC ratio (*) on BN10055 Nal: nalidixic acid
Description: (§3) The Enterobacter aerogenes Ea289 strain is a Kans derivative of the MDR clinical isolate Ea27, the acrB mutant, EaEP294, was constructed from Ea289. Multidrug-resistant Salmonella enterica serovar Typhimurium DT104 strains (BN10055) was isolated from cattle in France, the isogenic acrB derivative mutant, BN10055ΔacrB, was constructed from BN10055. Strains were maintained at −80° C. in 25% (v/v) glycerol for cryoprotection. Bacteria were routinely grown in Mueller-Hinton (MH) broth at 37° C.
as §1
(§4) […] All MIC determinations were repeated at least three times in independent experiments. The MIC ratio corresponds to the ratio of the MIC of an antibiotic alone to the MIC of the same antibiotic in the presence of the tested compound (at MIC/4).
as §2

[3] = system: Enterobacter aerogenes MDR Ea289; experiment: as above; assay type: cell-based; conditions: compound at MIC/4, Set 2; for MIC ratio (*) on Ea289 Dox: doxycycline; for MIC ratio (*) on Ea289 Nal: nalidixic acid
[4] = system: strain IV2571223 - Escherichia coli pig (sensible); experiment: MIC of antibiotics in the presence and absence of test compound, veterinary strains; assay type: cell-based; set-up: MIC for strain IV2571223, Doxycycline in the presence of test compound: unit not given beside the values; conditions: compound at the Concentration (μM) (2-50)
Description: (§5) For each strain and each antibiotic, the MICs were determined in the presence and in the absence of one test compound.

[5] = system: strain IV2571418 - Escherichia coli pig (resistant); experiment: as above; assay type: cell-based; set-up: MIC for strain IV2571418, Doxycycline in the presence of test compound: unit not given beside the values; conditions: compound at the Concentration (μM) (4-50)
Description: as §5

[6] = system: strain IV2570060 - Escherichia coli cattle (sensible); experiment: as above; assay type: cell-based; conditions: compound at the Concentration (μM) (4-50)
Description: as §5

[7] = system: strain IV2570533 - Escherichia coli cattle (resistant); experiment: as above; assay type: cell-based; conditions: compound at the Concentration (μM) (0.896-12.6)
Description: as §5

CHO cells = experiment: Toxicity on CHO cultured cells; assay type: cell-based; conditions: Cricetulus griseus; killing of 50% of the CHO cells after 24 hours of incubation
Description: The toxicity of each compound was determined on CHO cultured cells. Incubation of CHO cells was performed with serial dilution of compounds. The compounds are either solubilized in DMSO or in PBS. The IC50 corresponds to the concentration of compounds leading to a killing of 50% of the CHO cells after 24 hours of incubation.

Ea289ΔacrB (Ea294) = experiment: MIC of antibiotics ± test compound (MIC ratio), micro-broth dilution; assay type: cell-based, Enterobacter aerogenes; conditions: compound at MIC/4, Set 1
Description: as §3, §1, §4, §2

BN10055ΔacrB = experiment: as above; assay type: cell-based, Salmonella enterica serovar Typhimurium; conditions: compound at MIC/4, Set 1
Description: as §3, §1, §4, §2

[8] = chloramphenicol, compound at MIC/4, Set 2

| SMILES | MIC ratio (*) on Ea289 Chl [1, 8] | MIC ratio (*) on BN10055 Chl ([2]; Set 2) | MIC ratio (*) on BN10055 Dox ([2]; Set 2) | MIC ratio (*) on BN10055 Nal ([2]; Set 2) | MIC ratio (*) on Ea289 Dox [3] | MIC ratio (*) on Ea289 Nal [3] | other results |
| --- | --- | --- | --- | --- | --- | --- | --- |
| CC(C)=CCC/C(C)=C/CC/C(C)=C/CNCCCNCCCN [Compound 20] | 8 | 8 | 32 | 64 | 32 | 8 |  |
| CC(C)=CCC/C(C)=C/CC/C(C)=C/CNCCCN1CCN(CCCN)CC1 [Compound 15, {3-[4-(3-Amino-propyl)-piperazin-1-yl]-propyl}-((2E,6E)-3,7,11-trimethyl-dodeca-2,6,10-trienyl)-amine] | 8 | 8 | 32 | 64 | 128 | 32 | MIC for strain IV2571223, Doxycycline in the presence of test compound [4]: 0.0625; MIC for strain IV2571223, Tylosine in the presence of test compound [4]: 32; MIC for strain IV2571418, Doxycycline in the presence of test compound [5]: 4; MIC for strain IV2571418, Tylosine in the presence of test compound [5]: 32; MIC for strain IV2570060, Doxycycline in the presence of test compound [6]: 0.125; MIC for strain IV2570060, Tylosine in the presence of test compound [6]: 32; MIC for strain IV2570533, Doxycycline in the presence of test compound [7]: 2; MIC for strain IV2570533, Tylosine in the presence of test compound [7]: 32 |
| CC(C)=CCC/C(C)=C/CC/C(C)=C/CNCCCNCCCCN [Compound 19] | 8-16 | 8-16 | 16 | 64 | 64 | 16 |  |
| CC(C)=CCC/C(C)=C/CC/C(C)=C/CNCCCCN [Compound 17] | 8-16 | 8 | 16 | 64 | 64 | 16 |  |
| CC(C)=CCC/C(C)=C/CC/C(C)=C/CNCCCN(CCCN)CCCN [Compound 9, {3-[Bis-(3-amino-propyl)-amino]-propyl}-(3,7,11-trimethyl-dodeca-2,6,10-trienyl)-amine] | 32 | 16 | 8 | 128 | 16 | 16 | IC50 (CHO cells): 0.132 mM; Effective concentration (mM) for a MIC ratio of chloramphenicol ≥ 8 on Ea289 ([1]; chloramphenicol): 0.0078 mM; efficient concentration, times lower than the control PAβN ([1]; chloramphenicol MIC ratio of 8 on Ea289): about 4.9 times; activity, effective concentration compared with PAβN to reach a MIC ratio of 8 ([1]; chloramphenicol on Ea289): strong activity; MIC ratio (*) on Ea289 Chl ([1]; chloramphenicol, compound at MIC/4, Set 1): 32; MIC ratio(*) on Ea289 Ery ([1]; erythromycin, compound at MIC/4, Set 1): 16-32; MIC ratio (*) on Ea289 Nal ([1]; nalidixic acid, compound at MIC/4, Set 1): 16; MIC ratio(*) on Ea289ΔacrB Chl (Ea289ΔacrB (Ea294); chloramphenicol): 4; MIC ratio(*) on Ea289ΔacrB Ery (Ea289ΔacrB (Ea294); erythromycin): 8; MIC ratio(*) on Ea289ΔacrB Nal (Ea289ΔacrB (Ea294); nalidixic acid): 128; MIC ratio(*) on BN10055ΔacrB Chl (BN10055ΔacrB; chloramphenicol): 2; MIC ratio(*) on BN10055ΔacrB Ery (BN10055ΔacrB; erythromycin): 8; MIC ratio(*) on BN10055ΔacrB Nal (BN10055ΔacrB; nalidixic acid): 8; MIC ratio (*) on BN10055 Chl ([2]; Set 1): 16; MIC ratio(*) on BN10055 Ery ([2]; erythromycin, Set 1): 32; MIC ratio (*) on BN10055 Nal ([2]; Set 1): 128 |
| CC(C)=CCC/C(C)=C/CC/C(C)=C/CNCCCN1CCCC1 [Compound 22] | 8-16 | 16 | 32 | 128 | 32 | 16 |  |
| CC(C)=CCC/C(C)=C/CC/C(C)=C/CNCCCN [Compound 16] | 8-16 | 16-32 | 32 | 128 | 64 | 16 |  |
